Here are results for 12 molecules from ChEMBL document CHEMBL1139272, “Beyond the MEK-pocket: can current MEK kinase inhibitors be utilized to synthesize novel type III NCKIs? Does the MEK-pocket exist in kinases other than MEK?” (Bioorg Med Chem Lett, 2009).

Assay [1] in a line: Binding affinity to MEK.
Assay [2] concerns the target Protein kinase C beta type (Homo sapiens, UniProt P05771). Put plainly: Binding affinity to PKC beta2.
The target of assay [3] is Fibroblast growth factor receptor 1 (Homo sapiens, UniProt P11362). Put plainly: Binding affinity to FGFR1.
The next assay concerns the target T1, Aurora kinase A (Homo sapiens, UniProt O14965).
T1 sequence (O14965 whole entry): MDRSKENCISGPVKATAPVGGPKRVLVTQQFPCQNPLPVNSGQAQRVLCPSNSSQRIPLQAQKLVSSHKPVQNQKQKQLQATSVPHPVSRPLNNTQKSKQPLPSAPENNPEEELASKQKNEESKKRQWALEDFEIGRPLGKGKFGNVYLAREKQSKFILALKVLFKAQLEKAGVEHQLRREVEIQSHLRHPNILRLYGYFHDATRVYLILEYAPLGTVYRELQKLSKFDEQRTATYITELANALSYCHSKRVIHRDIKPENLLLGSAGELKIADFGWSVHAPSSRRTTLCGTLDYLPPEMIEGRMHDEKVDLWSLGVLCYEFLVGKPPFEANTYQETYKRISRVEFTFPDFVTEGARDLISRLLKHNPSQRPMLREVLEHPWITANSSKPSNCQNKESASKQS
Description: Binding affinity to Aurora A.

The target of assay [4] is Mitogen-activated protein kinase kinase kinase 9 (Homo sapiens, UniProt P80192). Put plainly: Binding affinity to MAP3K9.
Assay [5] addresses Tyrosine-protein kinase ABL1 (Homo sapiens, UniProt P00519). Put plainly: Binding affinity to ABL.
The nature of assay [6]: Binding affinity to p38.
For assay [7], the target named is Tyrosine-protein kinase BTK (Homo sapiens, UniProt Q06187).
Chain of Tyrosine-protein kinase BTK (Q06187 whole entry): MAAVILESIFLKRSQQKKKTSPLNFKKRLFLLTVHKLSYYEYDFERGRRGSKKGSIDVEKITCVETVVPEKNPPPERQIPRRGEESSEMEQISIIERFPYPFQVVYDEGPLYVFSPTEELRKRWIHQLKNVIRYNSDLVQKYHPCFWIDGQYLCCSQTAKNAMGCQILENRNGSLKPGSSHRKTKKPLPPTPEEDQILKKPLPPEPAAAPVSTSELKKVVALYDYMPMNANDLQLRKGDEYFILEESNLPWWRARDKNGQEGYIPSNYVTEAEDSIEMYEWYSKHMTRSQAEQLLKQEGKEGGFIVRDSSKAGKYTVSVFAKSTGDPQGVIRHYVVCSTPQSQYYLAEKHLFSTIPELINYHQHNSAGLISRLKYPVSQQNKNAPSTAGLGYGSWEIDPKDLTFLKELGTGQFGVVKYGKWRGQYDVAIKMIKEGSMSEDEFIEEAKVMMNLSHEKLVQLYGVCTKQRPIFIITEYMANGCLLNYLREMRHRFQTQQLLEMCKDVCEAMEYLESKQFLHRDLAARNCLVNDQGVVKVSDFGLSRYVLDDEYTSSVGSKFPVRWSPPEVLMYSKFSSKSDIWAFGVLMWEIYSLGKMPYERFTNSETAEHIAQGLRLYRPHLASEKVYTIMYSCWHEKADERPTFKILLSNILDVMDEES
The target in assay [8] is Vascular endothelial growth factor receptor 2 (Homo sapiens, UniProt P35968). Description: Binding affinity to VEGFR2.
Chain of Vascular endothelial growth factor receptor 2 (P35968 whole entry): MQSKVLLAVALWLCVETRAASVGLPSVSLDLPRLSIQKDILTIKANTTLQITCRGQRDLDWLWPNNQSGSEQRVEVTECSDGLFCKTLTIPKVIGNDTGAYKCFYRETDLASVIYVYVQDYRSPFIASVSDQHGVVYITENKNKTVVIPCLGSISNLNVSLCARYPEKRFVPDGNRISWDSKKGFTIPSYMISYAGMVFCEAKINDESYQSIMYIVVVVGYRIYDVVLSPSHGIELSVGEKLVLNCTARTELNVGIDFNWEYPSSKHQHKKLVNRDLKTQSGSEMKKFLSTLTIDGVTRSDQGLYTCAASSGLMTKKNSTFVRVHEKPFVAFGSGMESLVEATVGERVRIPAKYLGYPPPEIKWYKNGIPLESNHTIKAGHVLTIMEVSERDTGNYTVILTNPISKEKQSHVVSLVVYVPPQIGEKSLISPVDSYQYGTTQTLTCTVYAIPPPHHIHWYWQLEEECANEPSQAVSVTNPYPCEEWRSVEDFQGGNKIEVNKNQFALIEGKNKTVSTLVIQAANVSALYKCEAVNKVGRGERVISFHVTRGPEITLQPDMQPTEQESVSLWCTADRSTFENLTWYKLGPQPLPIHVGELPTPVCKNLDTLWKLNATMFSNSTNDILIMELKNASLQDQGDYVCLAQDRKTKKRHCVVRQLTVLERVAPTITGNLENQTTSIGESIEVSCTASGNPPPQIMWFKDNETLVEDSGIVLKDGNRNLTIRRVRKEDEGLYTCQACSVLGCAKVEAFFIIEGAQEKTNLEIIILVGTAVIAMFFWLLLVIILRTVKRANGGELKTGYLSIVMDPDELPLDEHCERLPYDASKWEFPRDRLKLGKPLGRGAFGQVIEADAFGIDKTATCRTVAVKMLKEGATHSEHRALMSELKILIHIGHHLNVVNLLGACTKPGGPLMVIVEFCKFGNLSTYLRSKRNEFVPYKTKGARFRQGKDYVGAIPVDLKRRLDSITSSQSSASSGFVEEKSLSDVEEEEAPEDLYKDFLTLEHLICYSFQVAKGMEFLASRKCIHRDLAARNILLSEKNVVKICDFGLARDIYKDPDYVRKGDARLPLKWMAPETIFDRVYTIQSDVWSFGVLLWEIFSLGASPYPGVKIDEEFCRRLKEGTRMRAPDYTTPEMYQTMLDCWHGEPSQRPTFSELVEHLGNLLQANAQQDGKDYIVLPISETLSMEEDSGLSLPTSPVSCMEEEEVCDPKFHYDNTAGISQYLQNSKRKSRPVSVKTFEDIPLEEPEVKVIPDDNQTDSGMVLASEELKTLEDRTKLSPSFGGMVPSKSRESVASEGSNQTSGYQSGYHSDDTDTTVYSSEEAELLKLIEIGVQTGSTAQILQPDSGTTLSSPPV
Assay [9] addresses Tyrosine-protein kinase Lck (Homo sapiens, UniProt P06239).
Assay [10] has as its target Proto-oncogene tyrosine-protein kinase Src (Homo sapiens, UniProt P12931). Description: Binding affinity to SRC.
Assay [11] addresses Dual specificity protein kinase CLK1 (Homo sapiens, UniProt P49759). Put plainly: Binding affinity to CLK1.
In assay [12] the target is T2, Ephrin type-A receptor 2 (Homo sapiens, UniProt P29317). Put plainly: Binding affinity to ECK.
T2 sequence (P29317 whole entry): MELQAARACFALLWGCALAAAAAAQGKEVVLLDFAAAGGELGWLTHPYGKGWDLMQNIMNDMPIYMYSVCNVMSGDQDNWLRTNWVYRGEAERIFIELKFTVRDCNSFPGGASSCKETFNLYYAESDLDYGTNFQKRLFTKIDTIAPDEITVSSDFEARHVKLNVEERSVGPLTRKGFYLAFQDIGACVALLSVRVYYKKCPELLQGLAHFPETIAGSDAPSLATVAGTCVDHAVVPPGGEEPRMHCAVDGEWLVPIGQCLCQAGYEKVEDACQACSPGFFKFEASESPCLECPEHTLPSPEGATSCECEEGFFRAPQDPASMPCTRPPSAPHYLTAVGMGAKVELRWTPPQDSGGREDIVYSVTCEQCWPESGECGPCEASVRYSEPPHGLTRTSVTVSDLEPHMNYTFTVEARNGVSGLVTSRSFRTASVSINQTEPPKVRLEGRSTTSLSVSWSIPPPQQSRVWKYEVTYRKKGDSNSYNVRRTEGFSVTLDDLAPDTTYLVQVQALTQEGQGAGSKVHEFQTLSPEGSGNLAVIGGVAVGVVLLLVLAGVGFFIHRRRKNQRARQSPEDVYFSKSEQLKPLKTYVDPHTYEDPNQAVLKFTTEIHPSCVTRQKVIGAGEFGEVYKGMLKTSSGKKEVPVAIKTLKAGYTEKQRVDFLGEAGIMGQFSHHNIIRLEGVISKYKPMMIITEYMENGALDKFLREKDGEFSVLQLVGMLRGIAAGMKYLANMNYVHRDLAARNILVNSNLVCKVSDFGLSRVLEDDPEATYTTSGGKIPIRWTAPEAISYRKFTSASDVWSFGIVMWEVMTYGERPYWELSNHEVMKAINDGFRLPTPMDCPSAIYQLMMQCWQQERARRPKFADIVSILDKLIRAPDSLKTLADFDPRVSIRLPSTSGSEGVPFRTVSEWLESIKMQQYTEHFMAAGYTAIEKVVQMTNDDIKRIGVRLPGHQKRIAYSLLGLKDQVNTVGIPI
The target in assay [13] is MAP kinase-activated protein kinase 2 (Homo sapiens) (UniProt P49137). Put plainly: Binding affinity to MK2 at 10 uM.
Chain of MAP kinase-activated protein kinase 2 (Homo sapiens) (P49137 whole entry, looked up): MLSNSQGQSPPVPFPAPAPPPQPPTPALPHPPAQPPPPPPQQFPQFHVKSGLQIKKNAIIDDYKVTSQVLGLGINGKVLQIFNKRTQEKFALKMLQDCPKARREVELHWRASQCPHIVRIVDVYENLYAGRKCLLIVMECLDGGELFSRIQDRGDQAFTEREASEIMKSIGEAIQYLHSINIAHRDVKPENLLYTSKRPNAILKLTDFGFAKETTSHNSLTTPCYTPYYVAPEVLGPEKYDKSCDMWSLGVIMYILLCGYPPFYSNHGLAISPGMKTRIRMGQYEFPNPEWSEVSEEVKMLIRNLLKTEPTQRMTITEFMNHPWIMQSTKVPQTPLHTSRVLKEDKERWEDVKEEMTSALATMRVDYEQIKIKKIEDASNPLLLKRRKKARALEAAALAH
Assay [14] concerns the target T3, Serine/threonine-protein kinase Sgk1 (Homo sapiens) (UniProt O00141).
T3 sequence (whole entry): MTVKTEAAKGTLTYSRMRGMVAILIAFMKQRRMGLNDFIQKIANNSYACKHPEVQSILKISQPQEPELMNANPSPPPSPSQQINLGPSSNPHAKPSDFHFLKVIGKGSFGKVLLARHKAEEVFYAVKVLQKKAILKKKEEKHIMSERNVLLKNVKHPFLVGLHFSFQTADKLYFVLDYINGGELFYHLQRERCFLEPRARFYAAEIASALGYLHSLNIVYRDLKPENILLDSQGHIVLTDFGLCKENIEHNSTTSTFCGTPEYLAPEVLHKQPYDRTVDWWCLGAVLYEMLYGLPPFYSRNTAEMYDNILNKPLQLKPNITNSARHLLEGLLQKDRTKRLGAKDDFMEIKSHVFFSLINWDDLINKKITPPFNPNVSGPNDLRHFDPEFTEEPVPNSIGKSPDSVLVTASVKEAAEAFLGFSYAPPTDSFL
Description: Binding affinity to SGK at 10 uM.

Assay [15] in a line: Binding affinity to p38 at 10 uM.
A short description of assay [16]: Binding affinity to NEK at 10 uM.
Assay [17] addresses Serine/threonine-protein kinase PAK 4 (Homo sapiens) (UniProt O96013). Put plainly: Binding affinity to PAK4 at 10 uM.
Assay [18] has as its target T2, Ephrin type-A receptor 2. Put plainly: Binding affinity to EPHA2 at 10 uM.
In assay [19] the target is High affinity nerve growth factor receptor (Homo sapiens) (UniProt P04629). Put plainly: Binding affinity to TrkA at 10 uM.
Assay [20] is described as follows: Binding affinity to GSK3 at 10 uM.
Assay [21] in a line: Binding affinity to PKC at 10 uM.
Assay [22] addresses T4, Aurora kinase A (Homo sapiens) (UniProt O14965).
T4 sequence (whole entry): T1 sequence (O14965 whole entry)
Put plainly: Binding affinity to Aurora A at 10 uM.

Assay [23] concerns the target T5, Serine/threonine-protein kinase 3 (Homo sapiens, UniProt Q13188).
T5 sequence (Q13188 whole entry): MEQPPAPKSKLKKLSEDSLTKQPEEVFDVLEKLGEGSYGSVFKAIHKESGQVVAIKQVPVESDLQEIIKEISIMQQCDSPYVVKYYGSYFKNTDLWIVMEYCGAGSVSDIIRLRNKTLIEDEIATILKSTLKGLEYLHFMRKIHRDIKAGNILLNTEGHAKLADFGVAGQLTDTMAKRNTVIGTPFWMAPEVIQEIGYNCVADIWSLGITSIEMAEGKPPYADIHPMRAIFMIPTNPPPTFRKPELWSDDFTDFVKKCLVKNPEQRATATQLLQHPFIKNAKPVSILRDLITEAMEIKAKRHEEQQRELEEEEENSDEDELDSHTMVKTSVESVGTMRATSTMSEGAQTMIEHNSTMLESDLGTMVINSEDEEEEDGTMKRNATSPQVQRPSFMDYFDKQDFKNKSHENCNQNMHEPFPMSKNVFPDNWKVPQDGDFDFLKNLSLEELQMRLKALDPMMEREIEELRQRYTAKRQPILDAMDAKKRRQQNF

Chain of Proto-oncogene tyrosine-protein kinase Src (P12931 2-536 limits assumed): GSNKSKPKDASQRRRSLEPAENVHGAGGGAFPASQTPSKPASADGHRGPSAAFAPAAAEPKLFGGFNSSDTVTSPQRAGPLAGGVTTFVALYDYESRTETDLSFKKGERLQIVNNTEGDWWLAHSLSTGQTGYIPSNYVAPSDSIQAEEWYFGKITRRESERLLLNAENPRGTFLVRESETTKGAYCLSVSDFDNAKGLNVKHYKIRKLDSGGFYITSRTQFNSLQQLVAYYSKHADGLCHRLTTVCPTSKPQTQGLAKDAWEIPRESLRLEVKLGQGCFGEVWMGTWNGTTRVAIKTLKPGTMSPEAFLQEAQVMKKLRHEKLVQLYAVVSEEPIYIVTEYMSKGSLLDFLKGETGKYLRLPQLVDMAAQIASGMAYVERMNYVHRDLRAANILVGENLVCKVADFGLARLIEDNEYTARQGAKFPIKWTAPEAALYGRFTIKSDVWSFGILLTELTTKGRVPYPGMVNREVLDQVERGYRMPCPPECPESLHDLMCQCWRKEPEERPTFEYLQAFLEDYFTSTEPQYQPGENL
Chain of Dual specificity protein kinase CLK1 (P49759 whole entry): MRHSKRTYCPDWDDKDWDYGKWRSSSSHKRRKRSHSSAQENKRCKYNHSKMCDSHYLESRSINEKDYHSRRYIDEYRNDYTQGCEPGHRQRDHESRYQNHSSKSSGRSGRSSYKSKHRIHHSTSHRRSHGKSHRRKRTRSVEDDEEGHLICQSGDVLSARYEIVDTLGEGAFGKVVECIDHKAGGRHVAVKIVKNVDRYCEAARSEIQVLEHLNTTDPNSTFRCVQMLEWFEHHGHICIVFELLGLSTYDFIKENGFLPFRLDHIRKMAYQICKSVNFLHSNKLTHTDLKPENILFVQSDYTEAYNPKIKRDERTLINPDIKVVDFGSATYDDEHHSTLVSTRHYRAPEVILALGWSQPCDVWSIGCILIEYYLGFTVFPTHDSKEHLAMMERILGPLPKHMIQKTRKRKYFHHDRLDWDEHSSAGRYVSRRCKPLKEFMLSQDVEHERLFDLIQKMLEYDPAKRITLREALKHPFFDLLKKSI
Chain of Serine/threonine-protein kinase PAK 4 (Homo sapiens) (O96013 whole entry, looked up): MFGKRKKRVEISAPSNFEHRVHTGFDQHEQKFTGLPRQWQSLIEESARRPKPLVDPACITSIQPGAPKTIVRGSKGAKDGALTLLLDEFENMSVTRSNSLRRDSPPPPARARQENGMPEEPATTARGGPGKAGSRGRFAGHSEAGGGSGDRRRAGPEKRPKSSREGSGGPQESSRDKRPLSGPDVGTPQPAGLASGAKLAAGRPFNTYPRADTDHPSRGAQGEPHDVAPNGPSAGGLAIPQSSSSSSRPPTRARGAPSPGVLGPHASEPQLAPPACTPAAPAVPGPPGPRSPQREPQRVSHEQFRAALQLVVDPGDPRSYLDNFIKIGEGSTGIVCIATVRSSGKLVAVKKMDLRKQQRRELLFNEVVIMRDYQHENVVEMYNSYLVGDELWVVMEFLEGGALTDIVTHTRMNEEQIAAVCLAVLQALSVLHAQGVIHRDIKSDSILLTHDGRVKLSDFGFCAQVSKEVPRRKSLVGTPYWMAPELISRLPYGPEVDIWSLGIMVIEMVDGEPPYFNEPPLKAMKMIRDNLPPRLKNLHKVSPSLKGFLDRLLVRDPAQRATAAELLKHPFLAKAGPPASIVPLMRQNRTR

On to `Cc1cc(I)ccc1Nc1c(C(=O)O)ccc(F)c1F`, for which the IC50 in assay [1] amounted to 0.011 µM.

For `CS(=O)(=O)c1ccc(CNCc2cc(C(=O)O)c(Nc3ccc(I)cc3F)c(F)c2F)cc1`, the IC50 in assay [2] is above 30 µM; in [3], above 30 µM; on Aurora kinase A it was 1 µM; in assay [4], 5 µM; in [5] it was above 30 µM; in assay [6], above 30 µM. Besides, the IC50 in assay [7] was above 30 µM; in assay [8], 18 µM; in [9] it was above 30 µM; in assay [10], above 30 µM; in assay [11], above 30 µM; on Ephrin type-A receptor 2 [12], above 30 µM.

In the case of `O=C(O)c1ccc(F)c(F)c1Nc1ccc(I)cc1Cl` [ZAPNOMETINIB], in assay [1], the IC50 was determined as 0.00573 µM.

Turning to `O=C(NOCCO)c1ccc(F)c(F)c1Nc1ccc(I)cc1F`, the inhibition in assay [13] was found to be 9%; in assay [14], 0%; in assay [15], 5%; in assay [16], 2%; in assay [17], 10%; on Ephrin type-A receptor 2 [18], 9%. Moreover, the inhibition amounted to 14% in assay [19], 0% in assay [20], 9% in assay [21] and 11% in assay [22].

With `COCCCNC(=O)N/N=C/c1cc(C(=O)NOCCO)c(Nc2ccc(I)cc2F)c(F)c1F`, the inhibition was determined as 1% in [13]; 0% in [14]; 31% in assay [15]; 0% in assay [16]; 0% in [17]; 7% at Ephrin type-A receptor 2 [18]. Moreover, the inhibition in assay [19] stood at 0%; in assay [20], 16%; in [21], 10%; in assay [22] it was 0%.

Consider `NC(=O)C[C@H](N)C(=O)NCc1cc(C(=O)O)c(Nc2ccc(I)cc2F)c(F)c1F`, for which the half-maximal inhibitory concentration (IC50) in assay [2] was 2 µM; in assay [3], above 30 µM; at Aurora kinase A it was 2 µM; in [4] it was above 30 µM; in assay [5], above 30 µM; in assay [6], above 30 µM. In addition, the IC50 in assay [23] was 6 µM; in [7] it was above 30 µM; in assay [8] it was above 30 µM; in [9], above 30 µM; in [10], 4 µM; in [11], above 30 µM. The IC50 at Ephrin type-A receptor 2 [12] was above 30 µM.

Take `O=C(NOCCO)c1cc(COCCO)c(F)c(F)c1Nc1ccc(I)cc1F`: the inhibition in assay [13] was 5%; in [14] it was 0%; in assay [15] it was 5%; in assay [16], 13%; in assay [17] it was 22%; on Ephrin type-A receptor 2 [18], 13%. Besides, the inhibition in assay [19] amounted to 27%; in assay [20], 25%; in assay [21], 0%; in assay [22] it was 2%.

Take `O=C(CS(=O)(=O)c1ccc(Cl)cc1)N/N=C/c1cc(C(=O)O)c(Nc2ccc(I)cc2F)c(F)c1F`: the concentration for half-maximal inhibition (IC50) in assay [2] was above 30 µM; in [3], above 30 µM; at Aurora kinase A, 4 µM; in [5], 4 µM; in assay [6], 10 µM; in assay [7], above 30 µM. Besides, the half-maximal inhibitory concentration (IC50) in [8] was above 30 µM; in [10] it was 3 µM; in assay [11], 3 µM; on Ephrin type-A receptor 2 [12], above 30 µM.

As for `O=C(NOCCO)c1cc(/C=N/OCCO)c(F)c(F)c1Nc1ccc(I)cc1F`, the inhibition is 2% in [13]; 0% in assay [14]; 1% in [15]; 0% in [16]; 0% in assay [17]; 9% on Ephrin type-A receptor 2 [18]. Also, the inhibition in assay [19] was 0%; in assay [20], 5%; in [21], 1%; in assay [22], 5%.

Take `O=C(N/N=C/c1cc(C(=O)O)c(Nc2ccc(I)cc2F)c(F)c1F)c1ccc(CO)o1`: the concentration for half-maximal inhibition (IC50) in [2] is above 30 µM; in assay [3] it was 2 µM; at Aurora kinase A, 3 µM; in assay [4], 4 µM; in [5], 0.3 µM; in assay [6], 5 µM. Moreover, the concentration for half-maximal inhibition (IC50) in assay [23] is above 30 µM; in assay [8], 3 µM; in assay [10], 0.1 µM; in [11] it was 15 µM; on Ephrin type-A receptor 2 [12], 3 µM.

As to `O=C(O)c1ccc(CO/N=C/c2cc(C(=O)NOCCO)c(Nc3ccc(I)cc3F)c(F)c2F)o1`, the inhibition in assay [13] was 28%; in assay [14], 60%; in assay [15], 19%; in assay [16], 20%; in assay [17], 28%; at Ephrin type-A receptor 2 [18], 22%. Also, the inhibition in [19] was 0%; in [20] it was 36%; in assay [21] it was 27%; in assay [22], 21%.

Regarding `O=C(O)CCCO/N=C/c1cc(C(=O)NOCCO)c(Nc2ccc(I)cc2F)c(F)c1F`, the inhibition was found to be 18% in assay [13]; 39% in assay [14]; 4% in [15]; 25% in assay [16]; 33% in assay [17]; 37% on Ephrin type-A receptor 2 [18]. Moreover, the inhibition stood at 1% in [19], 22% in assay [20], 25% in assay [21] and 29% in assay [22].

One may read the IC50 as the concentration needed to halve the response being measured. Read a high IC50 as weaker potency. One may read the inhibition as the change of the read-out against control, counted positive when it falls. Read a high inhibition as a response far below the control.
